Data on 3 compounds can be found in ChEMBL document CHEMBL1201862, “PubChem BioAssay data set” (2004).

Test [1] has as its system HEK293. The test can be described thus: cells. Type of test: functional, cell-based. The conditions noted are these: Homo sapiens.
In a further test the target is Tumor necrosis factor (Homo sapiens, UniProt P01375). Description: TNFa-triggered NF-kB activation inhibitors, SAR follow-up, cell-based, revised (AID 2337). Type of test: functional.
The target in test [2] is T1, COUP transcription factor 2 (Homo sapiens, UniProt P24468).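 Note: HEK293 cells transiently cotransfected with COUP-TFII expression vector and reporter; luciferase reporter luminescence driven by COUP-TFII from the pX2-168 reporter plasmid.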
T1 sequence (P24468 whole entry): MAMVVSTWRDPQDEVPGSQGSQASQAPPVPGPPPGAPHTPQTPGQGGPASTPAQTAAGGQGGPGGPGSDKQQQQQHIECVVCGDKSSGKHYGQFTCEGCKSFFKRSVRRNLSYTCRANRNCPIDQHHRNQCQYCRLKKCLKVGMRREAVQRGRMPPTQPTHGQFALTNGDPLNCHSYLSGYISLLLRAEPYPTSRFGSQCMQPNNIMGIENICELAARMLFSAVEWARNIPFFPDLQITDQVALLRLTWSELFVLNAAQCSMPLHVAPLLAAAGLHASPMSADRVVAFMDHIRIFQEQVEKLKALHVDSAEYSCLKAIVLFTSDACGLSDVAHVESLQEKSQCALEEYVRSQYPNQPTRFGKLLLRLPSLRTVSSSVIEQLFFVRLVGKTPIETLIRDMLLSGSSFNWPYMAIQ
Description: Luminescence-based cell-based high throughput dose response assay to identify inhibitors of COUP-TFII (NR2F2). Type of test: functional.

Test [3] relates to HEK293. The test can be described thus: cells. The conditions noted are these: Homo sapiens.
Test [4] relates to HEK293. Description: NOD2 signaling inhibitors in MDP-stimulated cells, cell-based, uHTS, luminescence (AID 2001). Type of test: functional. The conditions noted are these: Homo sapiens.
Test [5] relates to HEK293. Description: cells. Type of test: functional, cell-based. As to conditions: Homo sapiens. This is another data set of the same source.
Test [6] deals with Nucleotide-binding oligomerization domain-containing protein 1 (Homo sapiens, UniProt Q9Y239). Description: NOD1 signaling inhibitors, SAR follow-up, revised (AID 2333). Type of test: functional.
Chain of Nucleotide-binding oligomerization domain-containing protein 1 (Q9Y239 whole entry, the tested form may be a part): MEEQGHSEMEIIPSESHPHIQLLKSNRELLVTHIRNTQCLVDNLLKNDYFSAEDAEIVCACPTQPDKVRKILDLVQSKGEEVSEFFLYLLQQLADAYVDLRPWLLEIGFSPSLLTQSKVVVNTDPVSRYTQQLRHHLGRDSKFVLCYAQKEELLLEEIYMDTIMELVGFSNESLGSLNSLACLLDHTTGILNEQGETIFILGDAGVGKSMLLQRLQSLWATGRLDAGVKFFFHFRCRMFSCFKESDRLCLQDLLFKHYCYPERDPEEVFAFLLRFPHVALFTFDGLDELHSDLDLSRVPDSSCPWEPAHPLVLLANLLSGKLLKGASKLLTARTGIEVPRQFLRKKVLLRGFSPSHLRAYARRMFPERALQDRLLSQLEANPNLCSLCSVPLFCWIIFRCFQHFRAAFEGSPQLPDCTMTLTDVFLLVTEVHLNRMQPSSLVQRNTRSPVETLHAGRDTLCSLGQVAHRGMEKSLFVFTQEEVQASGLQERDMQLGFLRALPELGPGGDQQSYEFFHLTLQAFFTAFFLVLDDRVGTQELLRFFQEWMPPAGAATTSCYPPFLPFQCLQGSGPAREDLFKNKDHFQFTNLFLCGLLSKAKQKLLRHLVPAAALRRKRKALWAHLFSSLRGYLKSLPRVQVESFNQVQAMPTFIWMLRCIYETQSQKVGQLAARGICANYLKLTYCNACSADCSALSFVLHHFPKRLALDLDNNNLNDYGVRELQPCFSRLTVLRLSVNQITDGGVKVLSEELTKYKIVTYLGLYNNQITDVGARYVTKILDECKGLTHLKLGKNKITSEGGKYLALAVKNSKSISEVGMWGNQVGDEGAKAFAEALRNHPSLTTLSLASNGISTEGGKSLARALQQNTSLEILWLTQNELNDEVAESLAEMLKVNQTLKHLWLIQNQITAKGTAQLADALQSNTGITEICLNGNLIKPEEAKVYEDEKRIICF
The subject of test [7] is HEK293. The test can be described thus: NOD1 signaling inhibitors, primary screen, cell-based, luminescence, uHTS (AID 1578). In kind it is functional. The conditions noted are these: Homo sapiens.
Test [8] in a line: Luminescent dose response cell-based high throughput screening assay for inhibitors of the Janus kinase 2 mutant JAK2V617F. [Related pubchem assays: 1446 (Primary screen.), 1521 (Confirmation assay.), 1486 (Counter screen.)]. Type of test: functional.
Test [9] relates to Vero. The test can be described thus: cells. Type of test: functional, cell-based. The conditions noted are these: Chlorocebus sabaeus.
Test [10] concerns Vero. Description: cells. Type of test: functional. The conditions noted are these: Chlorocebus sabaeus.
A further test deals with INS1. Description: beta cell apoptosis inhibitors, cytokine rescue, dose response, luminescence, retest (AID 449756).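 Note: cell death triggered by IL-1 beta plus TNF-alpha plus IFN-gamma mixture; protective hits raise ATP signal compared with cytokine alone wells.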 Type of test: functional, cell-based. The conditions noted are these: Rattus norvegicus, INS1.
Another test is described as follows: cells. The conditions noted are these: HEK-CNG. Type of test: functional, cell-based.
Test [11] in a line: cytotoxicity in HMLE control line with eGFP shRNA, dose response, counter-screen for HMLE_sh_ECad selective toxicity project, cell-based, HMLE_sh_eGFP, luminescence (AID 463074).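 Note: HMLE human mammary epithelial cells expressing control shRNA against eGFP.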 In kind it is functional, Homo sapiens.
A short description of test [12]: Luminescence Cell-Based Dose Retest to Confirm Inhibitors of Cancer Stem Cells. [Related pubchem assays (depositor defined):AID2717, AID2721]. Type of test: functional. As to conditions: Homo sapiens.
A further test addresses T2, Galanin receptor type 3 (Homo sapiens, UniProt O60755).
T2 sequence (O60755 whole entry): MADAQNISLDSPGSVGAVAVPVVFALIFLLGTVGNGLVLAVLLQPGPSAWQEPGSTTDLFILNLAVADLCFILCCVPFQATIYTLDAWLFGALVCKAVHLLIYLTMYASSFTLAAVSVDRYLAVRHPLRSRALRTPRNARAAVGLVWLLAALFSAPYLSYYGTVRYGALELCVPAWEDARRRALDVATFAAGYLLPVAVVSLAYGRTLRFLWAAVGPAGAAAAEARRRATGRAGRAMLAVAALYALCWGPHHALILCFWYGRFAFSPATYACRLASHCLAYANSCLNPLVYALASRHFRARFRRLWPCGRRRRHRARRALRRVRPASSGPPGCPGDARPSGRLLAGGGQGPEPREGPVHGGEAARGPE
Description: Fluorescence-based cell-based primary high throughput dose response assay to identify antagonists of the Galanin Receptor 3 (GalR3). Type of test: functional.

In the next test the target is Protein Wnt-3a (Mus musculus, UniProt P27467). Description: Wnt3a-driven reporter signaling inhibition, dose response, selectivity assay for Gli-SUFU antagonist project, Wnt-LIGHT cells, luminescence (AID 651570).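 Note: Wnt-LIGHT reporter cells stimulated with conditioned medium from Wnt3a-producing cells.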 Type of test: functional. As to conditions: read-out: IC50_Mean.
Chain of Protein Wnt-3a (P27467 whole entry): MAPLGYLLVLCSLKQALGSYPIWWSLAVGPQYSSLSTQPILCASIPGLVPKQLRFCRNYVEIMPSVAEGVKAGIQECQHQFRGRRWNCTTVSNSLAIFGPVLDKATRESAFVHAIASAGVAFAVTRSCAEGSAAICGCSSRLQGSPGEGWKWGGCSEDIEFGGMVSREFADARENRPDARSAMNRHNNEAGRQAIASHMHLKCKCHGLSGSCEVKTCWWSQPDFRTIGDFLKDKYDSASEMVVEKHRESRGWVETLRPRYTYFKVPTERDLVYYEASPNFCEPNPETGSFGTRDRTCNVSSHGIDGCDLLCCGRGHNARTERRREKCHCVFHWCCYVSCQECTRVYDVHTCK
The target in the next test is Galanin receptor type 2 (Homo sapiens, UniProt O43603). Description: Dose Response cell-based high-throughput screening assay to identify antagonists of galanin receptor 2 (GALR2). [Related pubchem assays: 828, 866 ]. In kind it is functional.
Chain of Galanin receptor type 2 (O43603 whole entry): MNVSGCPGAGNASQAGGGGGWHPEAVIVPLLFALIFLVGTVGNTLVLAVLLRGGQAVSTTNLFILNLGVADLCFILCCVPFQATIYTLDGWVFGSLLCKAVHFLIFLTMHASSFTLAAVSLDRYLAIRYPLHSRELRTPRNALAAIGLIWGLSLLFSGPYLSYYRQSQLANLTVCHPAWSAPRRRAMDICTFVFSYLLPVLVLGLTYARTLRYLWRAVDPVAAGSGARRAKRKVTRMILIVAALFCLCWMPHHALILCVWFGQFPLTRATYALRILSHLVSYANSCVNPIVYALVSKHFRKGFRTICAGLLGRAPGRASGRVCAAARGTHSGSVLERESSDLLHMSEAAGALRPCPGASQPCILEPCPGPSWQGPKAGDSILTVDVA

Each structure is given as a SMILES string. Activity calls are given as the source filed them.

Chain of Tumor necrosis factor (P01375 whole entry): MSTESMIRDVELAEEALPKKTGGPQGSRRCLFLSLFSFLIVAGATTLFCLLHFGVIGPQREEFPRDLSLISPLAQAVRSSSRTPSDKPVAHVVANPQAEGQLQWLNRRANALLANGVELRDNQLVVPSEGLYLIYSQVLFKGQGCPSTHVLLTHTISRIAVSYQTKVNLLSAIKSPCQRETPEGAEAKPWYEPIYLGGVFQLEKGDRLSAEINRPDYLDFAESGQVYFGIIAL

Turning to `CSc1ccccc1OCc1cc(C(=O)N2CCC(c3ccncc3)CC2)no1`, the IC50 was 8.95 µM (active) with HEK293 [1]; 3.22 µM (active) at Tumor necrosis factor; 10.3 µM (inactive) in test [2]; > 20 µM (inactive) in the test on HEK293 [3]; 5.04 µM (active) in the test with HEK293 [4]; 3.97 µM (active) in the test on HEK293 [5]. Further, the IC50 in [6] is 3.18 µM (active). Further, the EC50 with HEK293 [7] is 2.09 µM (active).
For the compound `COc1cc(/C=C2\COC/C(=C\c3ccc(O)c(OC)c3)C2=O)ccc1O`, the results for the IC50 (in [8]; in the test on Vero [9]) were 1.15 µM (active) and > 25 µM (active), respectively. Moreover, the CC50 in the test on Vero [10] was 5.27 µM (active).
For `CCCCOc1[nH]cnc2c3cc(F)ccc3nc1-2`, the results for the AC50 (in the test with INS1; in test [11]; in [12]) were 4.34 µM (active), 52.7 µM (active) and > 195 µM (inactive), respectively. Besides, the EC50 in the test “cells” is > 29.9 µM (inactive). Also, the IC50 at Galanin receptor type 3 was 2.19 µM (active); at Protein Wnt-3a, 1.56 µM (active); against Galanin receptor type 2, 472 µM (not active).
